Data taken from patent publication US11807644B2 (PMV Pharmaceuticals, Inc., priority 2020, dated 2023).

Biological target: T1, recombinant His-tag Y220C p53 DBD protein (Homo sapiens, UniProt P04637, Y220C)
T1 construct: recombinant His-tag Y220C p53 DBD protein (amino acids #˜94-312)
Assay: In vitro DNA binding activity assay (TR-FRET): binding of His-tag Y220C p53 DBD to biotin-labeled consensus DNA
Assay type: biochemical
Settings: SC150 = concentration to increase DNA binding by […], His-tag Y220C p53 DBD, biotin-labeled consensus DNA

Row | SMILES | Y220C SC150 (μM)
1 | CN1CCC(Nc2cccc3c2cc(-c2cc(CNc4ccc(S(C)(=O)=O)cc4)[nH]n2)n3CC(F)(F)F)CC1 [Compound 22B, 2-(5-{[(4-methanesulfonylphenyl)amino]methyl}-1H-pyrazol-3-yl)-N-(1-methylpiperidin-4-yl)-1-(2,2,2-trifluoroethyl)-1H-indol-4-amine] | ** (** = 0.1 μM ≤ SC150 < 0.5 μM)
2 | CNc1cc(-c2cc3c(NC4CCN(C)CC4)cccc3n2CC(F)(F)F)n[nH]1 [Compound 23B, 2-[5-(methylamino)-1H-pyrazol-3-yl]-N-(1-methylpiperidin-4-yl)-1-(2,2,2-trifluoroethyl)-1H-indol-4-amine] | **** (**** = 1 μM ≤ SC150 < 10 μM)
3 | CN1CCC(Nc2cccc3c2cc(-c2nnc(CNc4ccc(S(C)(=O)=O)cc4)s2)n3CC(F)(F)F)CC1 [Compound 24B, 2-(5-{[(4-methanesulfonylphenyl)amino]methyl}-1,3,4-thiadiazol-2-yl)-N-(1-methylpiperidin-4-yl)-1-(2,2,2-trifluoroethyl)-1H-indol-4-amine] | ** (** = 0.1 μM ≤ SC150 < 0.5 μM)
4 | CN1CC[C@H](Nc2cccc3c2cc(-c2nnc(CNC(=O)C4CC4)s2)n3CC(F)(F)F)[C@H](F)C1 [Compound 25B, N-{[5-(4-{[(3R,4S)-3-fluoro-1-methylpiperidin-4-yl]amino}-1-(2,2,2-trifluoroethyl)-1H-indol-2-yl)-1,3,4-thiadiazol-2-yl]methyl}cyclopropanecarboxamide] | ** (** = 0.1 μM ≤ SC150 < 0.5 μM)
5 | CN1CC[C@H](Nc2cccc3c2cc(-c2nnc(CNC(=O)c4ccccc4)s2)n3CC(F)(F)F)[C@H](F)C1 [Compound 26B, N-{[5-(4-{[(3R,4S)-3-fluoro-1-methylpiperidin-4-yl]amino}-1-(2,2,2-trifluoroethyl)-1H-indol-2-yl)-1,3,4-thiadiazol-2-yl]methyl}benzamide] | ** (** = 0.1 μM ≤ SC150 < 0.5 μM)
6 | CN1CCC(Nc2cccc3c2cc(-c2nnc(CNC(=O)C4(F)CC4)s2)n3CC(F)(F)F)CC1 [Compound 31B, 1-fluoro-N-[(5-{4-[(1-methylpiperidin-4-yl)amino]-1-(2,2,2-trifluoroethyl)-1H-indol-2-yl}-1,3,4-thiadiazol-2-yl)methyl]cyclopropane-1-carboxamide] | ** (** = 0.1 μM ≤ SC150 < 0.5 μM)
7 | CN1CCC(Nc2cccc3c2cc(-c2nnc(CNC(=O)C4CC4)s2)n3CC(F)(F)F)CC1 [Compound 35B, N-[(5-{4-[(1-methylpiperidin-4-yl)amino]-1-(2,2,2-trifluoroethyl)-1H-indol-2-yl}-1,3,4-thiadiazol-2-yl)methyl]cyclopropanecarboxamide] | * (* = 0 μM ≤ SC150 < 0.1 μM)
8 | COC(=O)c1ccc(C(=O)NCc2nnc(-c3cc4c(NC5CCN(C)CC5)cccc4n3CC(F)(F)F)s2)cc1 [Compound 39B, methyl 4-{[(5-{4-[(1-methylpiperidin-4-yl)amino]-1-(2,2,2-trifluoroethyl)-1H-indol-2-yl}-1,3,4-thiadiazol-2-yl)methyl]carbamoyl}benzoate] | * (* = 0 μM ≤ SC150 < 0.1 μM)
9 | CN1CCC(Nc2cccc3c2cc(-c2nnc(CNC(=O)c4ccccn4)s2)n3CC(F)(F)F)CC1 [Compound 41B, N-[(5-{4-[(1-methylpiperidin-4-yl)amino]-1-(2,2,2-trifluoroethyl)-1H-indol-2-yl}-1,3,4-thiadiazol-2-yl)methyl]pyridine-2-carboxamide] | ** (** = 0.1 μM ≤ SC150 < 0.5 μM)
10 | CN1CCC(Nc2cccc3c2cc(-c2nnc(CNC(=O)c4cccnc4)s2)n3CC(F)(F)F)CC1 [Compound 42B, N-[(5-{4-[(1-methylpiperidin-4-yl)amino]-1-(2,2,2-trifluoroethyl)-1H-indol-2-yl}-1,3,4-thiadiazol-2-yl)methyl]pyridine-3-carboxamide] | ** (** = 0.1 μM ≤ SC150 < 0.5 μM)

Same assay, conditions: concentration to increase DNA binding by […], incubated at either 27° C. or 29° C. for 60 min

Row | SMILES | SC150 (μM)
11 | O=S1(=O)CCC(Nc2cccc3c2cc(-c2ccc(CN4CCOCC4)cc2)n3CC(F)(F)F)CC1 [Compound 24A, 4-[(2-{4-[(morpholin-4-yl)methyl]phenyl}-1-(2,2,2-trifluoroethyl)-1H-indol-4-yl)amino]-1λ^6-thiane-1,1-dione] | +++ (+++ = 5 μM ≤ SC150 < 10 μM)
12 | COC(=O)Nc1cccc(-c2cc3c(NC4CCS(=O)(=O)CC4)cccc3n2CC(F)(F)F)c1 [Compound 25A, methyl N-(3-{4-[(1,1-dioxo-1λ^6-thian-4-yl)amino]-1-(2,2,2-trifluoroethyl)-1H-indol-2-yl}phenyl)carbamate] | +++ (+++ = 5 μM ≤ SC150 < 10 μM)
13 | N#CC1(c2ccc(-c3cc4c(NC5CCS(=O)(=O)CC5)cccc4n3CC(F)(F)F)cc2)CC1 [Compound 26A, 1-(4-{4-[(1,1-dioxo-1λ^6-thian-4-yl)amino]-1-(2,2,2-trifluoroethyl)-1H-indol-2-yl}phenyl)cyclopropane-1-carbonitrile] | ++ (++ = 2 μM ≤ SC150 < 5 μM)
14 | O=S1(=O)CCC(Nc2cccc3c2cc(-c2ccc(CO)cc2)n3CC(F)(F)F)CC1 [Compound 27A, 4-({2-[4-(hydroxymethyl)phenyl]-1-(2,2,2-trifluoroethyl)-1H-indol-4-yl}amino)-1λ^6-thiane-1,1-dione] | ++ (++ = 2 μM ≤ SC150 < 5 μM)
15 | CS(=O)(=O)c1ccc(NC(=O)NCc2ccc(-c3cc4c(NC5CCS(=O)(=O)CC5)cccc4n3CC(F)(F)F)cc2)cc1 [Compound 28A, 1-[(4-{4-[(1,1-dioxo-1λ^6-thian-4-yl)amino]-1-(2,2,2-trifluoroethyl)-1H-indol-2-yl}phenyl)methyl]-3-(4-methanesulfonylphenyl)urea] | + (+ = 0 μM ≤ SC150 < 2 μM)
16 | CS(=O)(=O)c1ccc(NCc2ccc(-c3cc4c(NC5CCS(=O)(=O)CC5)cccc4n3CC(F)(F)F)cc2)cn1 [Compound 29A, 4-{[2-(4-{[(6-methanesulfonylpyridin-3-yl)amino]methyl}phenyl)-1-(2,2,2-trifluoroethyl)-1H-indol-4-yl]amino}-1λ^6-thiane-1,1-dione] | + (+ = 0 μM ≤ SC150 < 2 μM)
17 | CS(=O)(=O)c1ccc(NCc2ccc(-c3cc4c(NC5CCN(C6CCOCC6)CC5)cccc4n3CC(F)(F)F)cc2)cc1 [Compound 30A, 2-(4-{[(4-methanesulfonylphenyl)amino]methyl}phenyl)-N-[1-(oxan-4-yl)piperidin-4-yl]-1-(2,2,2-trifluoroethyl)-1H-indol-4-amine] | + (+ = 0 μM ≤ SC150 < 2 μM)
18 | Cc1ccc(NCc2ccc(-c3cc4c(NC5CCN(C6CCOCC6)CC5)cccc4n3CC(F)(F)F)cc2)cn1 [Compound 31A, 2-(4-{[(6-methylpyridin-3-yl)amino]methyl}phenyl)-N-[1-(oxan-4-yl)piperidin-4-yl]-1-(2,2,2-trifluoroethyl)-1H-indol-4-amine] | + (+ = 0 μM ≤ SC150 < 2 μM)
19 | FC(F)(F)Cn1c(-c2ccc(CNc3ccc(Cl)cc3)cc2)cc2c(NC3CCN(C4CCOCC4)CC3)cccc21 [Compound 32A, 2-(4-{[(4-chlorophenyl)amino]methyl}phenyl)-N-[1-(oxan-4-yl)piperidin-4-yl]-1-(2,2,2-trifluoroethyl)-1H-indol-4-amine] | ++ (++ = 2 μM ≤ SC150 < 5 μM)
20 | COc1ccc(NCc2ccc(-c3cc4c(NC5CCN(C6CCOCC6)CC5)cccc4n3CC(F)(F)F)cc2)cc1 [Compound 33A, 2-(4-{[(4-methoxyphenyl)amino]methyl}phenyl)-N-[1-(oxan-4-yl)piperidin-4-yl]-1-(2,2,2-trifluoroethyl)-1H-indol-4-amine] | ++ (++ = 2 μM ≤ SC150 < 5 μM)
21 | FC(F)(F)Cn1c(-c2ccc(CNc3cccc(Cl)c3)cc2)cc2c(NC3CCN(C4CCOCC4)CC3)cccc21 [Compound 34A, 2-(4-{[(3-chlorophenyl)amino]methyl}phenyl)-N-[1-(oxan-4-yl)piperidin-4-yl]-1-(2,2,2-trifluoroethyl)-1H-indol-4-amine] | ++++ (++++ = 10 μM ≤ SC150 < 35 μM)
22 | Cc1ccc(NCc2ccc(-c3cc4cc(CNC5CCN(C)CC5)ccc4n3CC(F)(F)F)cc2)cn1 [Compound 35A, 6-methyl-N-{[4-(5-{[(1-methylpiperidin-4-yl)amino]methyl}-1-(2,2,2-trifluoroethyl)-1H-indol-2-yl)phenyl]methyl}pyridin-3-amine] | +++ (+++ = 5 μM ≤ SC150 < 10 μM)
23 | CN1CCC(NCc2ccc3c(c2)cc(-c2ccc(CNc4ccc(S(C)(=O)=O)cc4)cc2)n3CC(F)(F)F)CC1 [Compound 36A, N-{[2-(4-{[(4-methanesulfonylphenyl)amino]methyl}phenyl)-1-(2,2,2-trifluoroethyl)-1H-indol-5-yl]methyl}-1-methylpiperidin-4-amine] | ++ (++ = 2 μM ≤ SC150 < 5 μM)
24 | CN1CCC(Nc2cccc3c2cc(-c2ccc(C(N)c4ccccc4)cc2)n3CC(F)(F)F)CC1 (stereo not drawn) [Compound 38A, 2-{4-[amino(phenyl)methyl]phenyl}-N-(1-methylpiperidin-4-yl)-1-(2,2,2-trifluoroethyl)-1H-indol-4-amine] | +++ (+++ = 5 μM ≤ SC150 < 10 μM)
25 | CN1CCC(Nc2cccc3c2cc(-c2ccc(CNC4CCCC4)cc2)n3CC(F)(F)F)CC1 [Compound 40A, 2-{4-[(cyclopentylamino)methyl]phenyl}-N-(1-methylpiperidin-4-yl)-1-(2,2,2-trifluoroethyl)-1H-indol-4-amine] | ++++ (++++ = 10 μM ≤ SC150 < 35 μM)
26 | CC(Nc1ccc(S(C)(=O)=O)cc1)c1ccc(-c2cc3c(NC4CCN(C)CC4)cccc3n2CC(F)(F)F)cc1 (stereo not drawn) [Compound 41A, 2-(4-{1-[(4-methanesulfonylphenyl)amino]ethyl}phenyl)-N-(1-methylpiperidin-4-yl)-1-(2,2,2-trifluoroethyl)-1H-indol-4-amine] | ++ (++ = 2 μM ≤ SC150 < 5 μM)
27 | CN1CC[C@H](Nc2cccc3c2cc(-c2ccc(CNc4ccc(S(C)(=O)=O)cc4)cc2)n3CC(F)(F)F)[C@H](F)C1 [Compound 44A, N-[(3R,4S)-3-fluoro-1-methylpiperidin-4-yl]-2-(4-{[(4-methanesulfonylphenyl)amino]methyl}phenyl)-1-(2,2,2-trifluoroethyl)-1H-indol-4-amine] | + (+ = 0 μM ≤ SC150 < 2 μM)
